Assay results as given in US20030186946A1, “Suppression of cytotoxic protein conformers” (priority 2002, published 2003).

Tests used:
[1] = biological target: T1, human amylin (Homo sapiens, UniProt P10997); experiment: Circular dichroism assay of amylin conformation; assay type: biochemical; parameters: Amylin is a 37-residue; C-terminally amidated peptide having a disulfide bridge between the cysteines at residues 2 and 7; purchased Bachem Calif; (Torrance, Calif.); host or cells: chemical synthesis; conditions: for conformation of human amylin (circular dichroism): approximately 4 μM human amylin, 4% HFIP (FIG. 9E)
T1 sequence (P10997 34-70 limits assumed): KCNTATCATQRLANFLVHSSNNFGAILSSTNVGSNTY
Protocol: Preparation of monomeric human amylin. Human amylin (batch 0551805) was obtained from Bachem (Torrence, Calif.). Stock solutions of amylin were prepared as described by Padrick and Miranker, 2002. Human amylin was solubilised in 6M guanidine HCL/50 mM potassium phosphate, pH 6.0, and loaded onto a C18 reversed-phase spin column (Harvard Biosciences). The column was then washed sequentially with 10% Acetonitrile, 0.2% trifluoroacetic acid and water. Monomeric amylin was eluted in 100% HFIP (hexafluoroisopropanol). This stock solution of amylin was then used for all Circular Dichroism experiments.
Circular Dichroism Assay. Circular dichroism spectra were measured on a Pi-Star 180 spectrometer (Applied Photophysics, Leatherhead, UK). Measurements were carried out in either 100% HFIP or 100 mM potassium chloride/50 mM potassium phosphate buffer (pH 7.4) and 2.5% HFIP at 25° C. A stock solution of monomeric human amylin was diluted into buffer to a final concentration of 2.5% HFIP and approximately 5 μM amylin to initiate amylin fibril formation. Spectra were collected at 1 nm intervals with a sample period of 25 μs and adaptive sampling of ±0.01 mdeg. Measurements were recorded immediately following addition of the human amylin stock solution to phosphate buffer in the presence or absence of Congo red or amaranth.
Human amylin (100 μg) was purified on a C18 spin column to give a stock solution in 100% HFIP as described in the methods. A spectrum of this stock solution was collected at 1 nm intervals in a 0.1 cm path length quartz cell (FIG. 9B). The stock solution of monomeric amylin in 100% HFIP was diluted to 2.5% HFIP in 100 mM potassium chloride/50 mM potassium phosphate buffer (pH 7.4). Human amylin concentration was approximately 5 μM. A spectrum was collected at 1 nm intervals in a 0.5 cm path length quartz cell in the absence (FIG. 9C) or presence of 20-fold molar excess of Congo red over human amylin (FIG. 9D). The stock solution of monomeric amylin in 100% HFIP was diluted to 4% HFIP in 100 mM potassium chloride/50 mM potassium phosphate buffer (pH 7.4) containing decreasing concentrations of Congo red as indicated in the Figure. Human amylin concentration was approximately 4 μM. Spectra were collected at 1 nm intervals in a 0.1 cm path length quartz cell (FIG. 9E). The stock solution of monomeric amylin in 100% HFIP was diluted to 4% HFIP in 100 mM potassium chloride/50 mM potassium phosphate buffer (pH 7.4) containing 200 μM Amaranth. Human amylin concentration was approximately 4 μM. Spectra were collected at 1 nm intervals in a 0.1 cm path length quartz cell (FIG. 9F).

[2] = biological target: T1, human amylin; experiment: Radiolabelled precipitation assay of amylin fibril formation; assay type: biochemical; parameters: Amylin is a 37-residue; C-terminally amidated peptide having a disulfide bridge between the cysteines at residues 2 and 7; purchased Bachem Calif; (Torrance, Calif.); host or cells: chemical synthesis; conditions: 200 μM Congo red, 10 μM human amylin, after 5 h
Protocol: Radiolabelled Precipitation Assays. The precipitation of radiolabelled human and rat amylin fibrils was used as an independent method to monitor assembly of amylin fibrils in the presence or absence of potential inhibitors of amylin fibril formation. […] Incubation mixtures were then centrifuged at either 16,000×g or 100,000×g, for 20 min, and the amount of [^3H]-human amylin remaining in the supernatant after centrifugation was determined (Beckman LSW 3801 β-counter, USA). Results were expressed as percentages of precipitable counts per minute, relative to total radioactivity in the supernatant.
Incorporation of [^3H]-amylin into amylin fibrils was followed for 24 hours. Human amylin fibrils were precipitated by centrifugation at either 16,000×g (FIG. 7A) or at 100,000×g (FIG. 7B). Rat amylin (10 μM) in the presence of [^3H]-rat amylin was used as a non-fibril forming control (♦) (FIG. 7A). The results are shown as the percentage of precipitable radioactive amylin, relative to total radioactivity in the supernatant at each time point. Each data point represents the mean±s.e.m of three separate reactions.
The incorporation of radioactive monomeric amylin into the human amylin fibrils as they form, can be used to measure the rate at which amylin fibrils form in the presence or absence of a potential inhibitory drug. Amylin fibrils can be separated from solution by centrifugation and the amount of radioactive amylin precipitated in the amylin fibril pellet is then used as a measure of the amount of amylin fibrils present at that time.
Thioflavin-T, although not polycyclic, is widely used in fluorescent assays to measure amylin fibril formation. Incorporation of radioactivity into the pellet of an aliquot of the reaction mixture centrifuged at 16,000×g, for 20 minutes was monitored over the time periods indicated. Rat amylin (10 μM) with [^3H]-rat amylin added was used as a non fibril forming control (∘) in each experiment. The results are shown as the percentage of precipitable radioactive amyloid, relative to total radioactivity in the supernatant at each time point. Each data point represents the mean±s.e.m of three separate experiments.

With Congo red the “conformation of human amylin (circular dichroism)” value (“conformation of human amylin” for short) ([1]; 0.8 μM Congo red after 1 hr) was “β-sheet”, the “conformation of human amylin” value ([1]; 0.8 μM Congo red) was “random coil” and the “conformation of human amylin” value ([1]; 4 μM Congo red) was “α-helix”. The “conformation of human amylin” value ([1]; 200 μM Congo red) was “α-helix”, the “effect on β-sheet conformer formation of human amylin (circular dichroism)” value ([1]; 20-fold molar excess of Congo red, approximately 5 μM human amylin, 2.5% HFIP, pH 7.4 (FIG. 9D)) was “prevents formation of β-sheet conformers” and the “time amylin remains stable in α-helical structure” value ([1]; excess of Congo red) was “at least 24 hr”. The “reduction in amyloid content” value [2] was “approximately 3 fold”.
